# Laboratory results as given in ChEMBL document CHEMBL5252579, “Discovery of fluorinated 2‑Styryl 4(3H)-quinazolinone as potential therapeutic hit for oral cancer” (Bioorg Med Chem, 2023).
# Activity calls are given as the source filed them. No cut-off for these calls is given here.
# What was measured:
# [1] = Cytotoxicity against human normal oral epithelial cell assessed as reduction in cell viability incubated for 24 hrs by alamar blue assay; format: toxicity, cell-based; conditions: normal oral epithelial cells
# CAL-27 [2] = assay: Cytotoxicity against human CAL-27 cells assessed as reduction in cell viability incubated for 24 hrs by alamar blue assay; format: functional, cell-based; conditions: CAL-27, 24 h
# CAL-27 [3] = assay: Downregulation of G2M checkpoint gene in human CAL-27 cells at IC50 concentration incubated for 24 hrs by RNA sequencing analysis; format: functional, cell-based
# CAL-27 [4] = assay: Antimigratory activity against human CAL-27 cells assessed as reduction in gap closure at 14 uM after 24 hrs by scratch wound healing assay (reference value: 65.2%); format: functional; parameters: scale not given: the % may be the effect or the level left
# CAL-27 [5] = assay: Antimigratory activity against human CAL-27 cells assessed as reduction in number of colonies at 14 uM replaced with fresh medium for every 2 days for 10 days by crystal violet staining based inverted microscopic analysis (reference value: 234); format: functional; conditions: time 10 day
# CAL-27 [6] = assay: Upregulation of epithelial mesenchymal gene in human CAL-27 cells at IC50 concentration incubated for 24 hrs by RNA sequencing analysis; format: functional, cell-based
# CAL-27 [7] = assay: Induction of cell cycle arrest in human CAL-27 cells assessed as accumulation at G2/M phase at IC50 concentration incubated for 24 hrs by propidium iodide staining based flow cytometric analysis (reference value: […]); format: functional
# CAL-27 [8] = assay: Downregulation of interferon gamma gene in human CAL-27 cells at IC50 concentration incubated for 24 hrs by RNA sequencing analysis; format: functional, cell-based
# CAL-27 [9] = assay: Downregulation of E2F gene in human CAL-27 cells at IC50 concentration incubated for 24 hrs by RNA sequencing analysis; format: functional, cell-based
# CAL-27 [10] = assay: Cytotoxicity against human CAL-27 cells assessed as reduction in cell viability incubated for 72 hrs by alamar blue assay; format: functional, cell-based; conditions: CAL-27, 72 h
# CAL-27 [11] = assay: Upregulation of KRAS signaling gene in human CAL-27 cells at IC50 concentration incubated for 24 hrs by RNA sequencing analysis; format: functional, cell-based
# CAL-27 [12] = assay: Downregulation of MYC gene in human CAL-27 cells at IC50 concentration incubated for 24 hrs by RNA sequencing analysis; format: functional, cell-based
# [13] = Induction of cell cycle arrest in human normal oral epithelial cell assessed as accumulation at G1 phase at IC50 concentration incubated for 24 hrs by propidium iodide staining based flow cytometric analysis (reference value: 55.49 %); format: toxicity
# CAL-27 [14] = assay: Downregulation of KRAS signaling gene in human CAL-27 cells at IC50 concentration incubated for 24 hrs by RNA sequencing analysis; format: functional, cell-based
# CAL-27 [15] = assay: Downregulation of MTORC1 signaling gene in human CAL-27 cells at IC50 concentration incubated for 24 hrs by RNA sequencing analysis; format: functional, cell-based
# CAL-27 [16] = assay: Upregulation of apoptosis gene in human CAL-27 cells at IC50 concentration incubated for 24 hrs by RNA sequencing analysis; format: functional, cell-based
# CAL-27 [17] = assay: Upregulation of glycolysis gene in human CAL-27 cells at IC50 concentration incubated for 24 hrs by RNA sequencing analysis; format: functional, cell-based
# CAL-27 [18] = assay: Induction of cell cycle arrest in human CAL-27 cells assessed as decrease in cells at S phase at IC50 concentration incubated for 24 hrs by propidium iodide staining based flow cytometric analysis (reference value: 23.97 %); format: functional; parameters: scale not given: the % may be the effect or the level left
# CAL-27 [19] = assay: Downregulation of mitotic spindle in human CAL-27 cells at IC50 concentration incubated for 24 hrs by RNA sequencing analysis; format: functional, cell-based
# [20] = Induction of cell cycle arrest in human normal oral epithelial cell assessed as accumulation at G2/M phase at IC50 concentration incubated for 24 hrs by propidium iodide staining based flow cytometric analysis (reference value: 12.79 %); format: toxicity
# CAL-27 [21] = assay: Antimigratory activity against human CAL-27 cells at 14 uM after 24 hrs by scratch wound healing assay; format: functional
# CAL-27 [22] = assay: Upregulation of MTORC1 signaling gene in human CAL-27 cells at IC50 concentration incubated for 24 hrs by RNA sequencing analysis; format: functional, cell-based
# CAL-27 [23] = assay: Upregulation of p53 pathway in human CAL-27 cells at IC50 concentration incubated for 24 hrs by RNA sequencing analysis; format: functional, cell-based
# [24] = Induction of cell cycle arrest in human normal oral epithelial cell assessed as reduction in cells at S phase at IC50 concentration incubated for 24 hrs by propidium iodide staining based flow cytometric analysis (reference value: 31.85 %); format: toxicity; parameters: scale not given: the % may be the effect or the level left
# CAL-27 [25] = assay: Upregulation of myogenesis gene in human CAL-27 cells at IC50 concentration incubated for 24 hrs by RNA sequencing analysis; format: functional, cell-based
# CAL-27 [26] = assay: Cytotoxicity against human CAL-27 cells assessed as reduction in cell viability incubated for 48 hrs by alamar blue assay; format: functional, cell-based; conditions: CAL-27, 48 h
# CAL-27 [27] = assay: Downregulation of estrogen response gene in human CAL-27 cells at IC50 concentration incubated for 24 hrs by RNA sequencing analysis; format: functional, cell-based
# CAL-27 [28] = assay: Upregulation of IL2 STAT5 signaling gene in human CAL-27 cells at IC50 concentration incubated for 24 hrs by RNA sequencing analysis; format: functional, cell-based
# CAL-27 [29] = assay: Upregulation of hypoxia related gene in human CAL-27 cells at IC50 concentration incubated for 24 hrs by RNA sequencing analysis; format: functional, cell-based
# CAL-27 [30] = assay: Upregulation of TNF-alpha signaling NF-kappaB gene in human CAL-27 cells at IC50 concentration incubated for 24 hrs by RNA sequencing analysis; format: functional, cell-based
# CAL-27 [31] = assay: Induction of cell cycle arrest in human CAL-27 cells assessed as accumulation at G1 phase at IC50 concentration incubated for 24 hrs by propidium iodide staining based flow cytometric analysis (reference value: 61.61 %); format: functional
structure (smiles),measurement,setting,value
O=c1[nH]c(/C=C/c2ccc(Cl)cc2)nc2ccccc12,IC50 at 24 h,[1],17 µM
same,IC50,CAL-27 [2],15.6 µM
COc1ccc(/C=C/c2nc3ccccc3c(=O)[nH]2)cc1,IC50 at 24 h,[1],13 µM
same,IC50,CAL-27 [2],14 µM
O=c1[nH]c(/C=C/c2c(F)c(F)c(F)c(F)c2F)nc2ccccc12,IC50 at 24 h,[1],17 µM
same,IC50,CAL-27 [2],13.6 µM
N#Cc1ccc(/C=C/c2nc3ccccc3c(=O)[nH]2)cc1,IC50 at 24 h,[1],25 µM
same,IC50,CAL-27 [2],17 µM
Cc1ccc(/C=C/c2nc(O)c3ccccc3n2)cc1,IC50 at 24 h,[1],14 µM
same,IC50,CAL-27 [2],14.6 µM
O=c1[nH]c(/C=C/c2ccc([N+](=O)[O-])cc2)nc2ccccc12,IC50 at 24 h,[1],12 µM
same,IC50,CAL-27 [2],16 µM
O=c1[nH]c(/C=C/c2cccs2)nc2ccccc12,IC50 at 24 h,[1],16.2 µM
same,IC50,CAL-27 [2],11.3 µM
O=c1[nH]c(/C=C/c2ccc(F)cc2)nc2ccccc12,Activity,CAL-27 [3],Active
same,Activity,CAL-27 [4],36%
same,Activity,CAL-27 [5],158
same,Activity,CAL-27 [6],Active
same,Activity,CAL-27 [7],14.24%
same,Activity,CAL-27 [8],Active
same,Activity,CAL-27 [9],Active
same,IC50,CAL-27 [10],8 µM
same,Activity,CAL-27 [11],Active
same,Activity,CAL-27 [12],Active
same,Activity,[13],55.99%
same,Activity,CAL-27 [14],Active
same,Activity,CAL-27 [15],Active
same,Activity,CAL-27 [16],Active
same,Activity,CAL-27 [17],Active
same,Activity,CAL-27 [18],9.76%
same,Activity,CAL-27 [19],Active
same,Activity,[20],13.79%
same,Activity,CAL-27 [21],64%
same,Activity,CAL-27 [22],Active
same,Activity,CAL-27 [23],Active
same,IC50 at 24 h,[1],41.4 µM
same,Activity,[24],30.19%
same,Activity,CAL-27 [25],Active
same,IC50,CAL-27 [26],10 µM
same,Activity,CAL-27 [27],Active
same,Activity,CAL-27 [28],Active
same,Activity,CAL-27 [29],Active
same,Activity,CAL-27 [30],Active
same,Activity,CAL-27 [31],76.12%
same,IC50,CAL-27 [2],12.9 µM
O=c1[nH]c(/C=C/c2cccc(F)c2)nc2ccccc12,IC50 at 24 h,[1],26 µM
same,IC50,CAL-27 [2],16 µM
C/C(=C\c1ccccc1)c1nc2ccccc2c(=O)[nH]1,IC50 at 24 h,[1],15 µM
same,IC50,CAL-27 [2],8.6 µM
CN(C)c1ccc(/C=C/c2nc(O)c3ccccc3n2)cc1,IC50 at 24 h,[1],31 µM
same,IC50,CAL-27 [2],13.6 µM
